Source: US8129383B2, “Aminopterin dosage forms and methods for inflammatory disorders” (Aminopterin LLC, priority 2005, dated 2012)

How the values were obtained:
[1] = system: neutrophils that accumulated in the carrageenan-treated air pouches
Procedure: J. Clin. Invest., 1993. 92(6):2675-82].
A separate group of 5 animals was given vehicle by ip injection on the same days (0.9% saline, control, n=5). On day 16, air pouches were induced on the animals by injecting 3 ml of air subcutaneously on the back. On day 22 (i.e. one day after the last dose of drug or vehicle), inflammation was induced by injection of 1 ml of a suspension of carrageenan (2% weight/volume in calcium- and magnesium-free PBS). The mice were put back in their cages and allowed to run free for 4 hours. […] After 4 hours, the animals were sacrificed, the pouches flushed with 2 ml of PBS and the exudates harvested. Aliquots were diluted 1:1 with methylene blue (0.01% w/v in PBS), and the cells were counted.

[2] = system: influx of neutrophils (PMNs) in hyperoxia; experiment: rat oxygen-toxicity model of bronchopulmonary dysplasia; format: in vivo, rats; details: single 0.2 mg/kg ip injection day 2 after birth, 95% oxygen, sacrifice day 8
Text: Mason, S, N.; Richard L. Auten, J. Lung inflammation in hyperoxia can be prevented by antichemokine treatment in newborn rats. American Journal of Respiratory Critical Care Medicine 2000, 162, 2316-2323]. […] Litter sizes were the same. […] Dams were rotated daily between air and oxygen cages to avoid maternal oxygen toxicity. On day 8, the pups were weighed and then euthanized, tracheas are cannulated and the pulmonary artery is perfused with saline. Bronchoalveolar lavage fluid (BALF) was then obtained for cell count and chemokine analysis (FIG. 3). The lungs were removed and snap frozen for myeloperoxidase activity assay (neutrophil accumulation within lung parenchyma) and 8-isoprostane, a marker of lipid oxidation. The pulmonary artery was perfused and the lungs were inflation-fixed with buffered formalin at 25 cm H2O.

[3] = system: canine atopic dermatitis
Procedure: […] Subjects were assessed at baseline and at weeks 2 and 4 of the trial, and every other week of the 1-year extension phase.
Subjects were assessed at baseline and at weeks 2 and 4.

[4] = system: ma104 cells; experiment: adenosine release from ma104 cells; format: cell-based; details: 8 hours incubation
Procedure: Various concentrations of aminopterin were incubated with ma104 cells for 8 hours, and the release of adenosine measured (FIG. 5).

[5] = system: active and passive EAE; experiment: rat EAE animal model of multiple sclerosis; format: in vivo
Procedure: Using the rat EAE animal model of multiple sclerosis, a series of prophetic studies are performed wherein aminopterin is given to animals using both active and passive protocols for inducing EAE (Burton, Agents and Actions (1989) 27 (3/4): 351-355). In the active protocol, animals are intradermally injected with myelin basic protein (MBP), Freund's adjuvant and mycobacteria, whereas in the passive protocol separate donor rats are immunized actively and then 10-12 days after active immunization, donor splenocytes are collected and stimulated […] with MBP for 3 days, then 1−2×10^8 leukocytes injected iv into each irradiated (600 rads) recipient rat. Aminopterin at doses of 0.0005, 0.001, 0.002, 0.005, 0.008, 0.010, 0.050, 0.1 and 0.5 mg/kg are administered ip on the day after active or passive sensitization.

[6] = system: chronic progressive multiple sclerosis; experiment: randomized, placebo-controlled clinical trial in chronic progressive multiple sclerosis; format: in vivo, human
Procedure: A prophetic randomized, double-blinded, placebo-controlled, clinical trial of low-dose, weekly, oral aminopterin is performed in 60 patients with clinically definite chronic progressive multiple sclerosis (MS) attending a referral-based outpatient MS clinic. Study patients are 21 to 60 years old with a disease duration of longer than 1 year. Patients' Expanded Disability Status Scale scores were 3.0 to 6.5 (ambulatory with moderate disability). Patients are first stratified by Expanded Disability Status Scale scores, 3.0 to 5.5 and 6.0 to 6.5, and then were randomized to receive aminopterin or placebo treatment. Treatment consists of weekly, oral, low-dose (1.0-2.0 mg) aminopterin or placebo for 2 years, followed by observation for as long as 1 year. A composite outcome measurement instrument is used and consists of (1) Expanded Disability Status Scale (EDSS), (2) ambulation index, (3) Box and Block Test, and (4) 9-Hole Peg Test. Failure of therapy is indicated by a designated change that is sustained for more than 2 months in one or more components of this composite measure.

[7] = target: T1, partially purified chicken liver DHFR (Gallus gallus, UniProt P00378); experiment: radioligand DHFR binding assay
T1 sequence (P00378 1-189): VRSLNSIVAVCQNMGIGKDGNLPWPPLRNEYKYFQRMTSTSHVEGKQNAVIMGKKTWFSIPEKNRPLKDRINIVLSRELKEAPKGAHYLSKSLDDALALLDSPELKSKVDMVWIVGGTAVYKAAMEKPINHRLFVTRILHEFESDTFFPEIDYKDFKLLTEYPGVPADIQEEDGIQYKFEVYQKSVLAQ
Procedure: 16:1458, 1998]. […] After the standard curve is established, a portion of the 200 μM supernatant prepared above for an aminopterin tablet is further diluted 10,000 using two serial 100-fold dilutions with water to provide an approximately 20 nM solution of aminopterin. The DHFR assay is performed with 100 μL of the 20 nM solution, as well as several 2-fold serial dilutions, and the result expressed as pmol/ml aminopterin. The total number of pmol of aminopterin is calculated using the relationship, pmol/ml×10,000×11.35. The total number of mg in the tablet is then calculated using the relationship, total pmol×(10^−6 μmole/pmol)×0.44 mg/μmole.

[8] = system: rheumatoid arthritis, psoriatic arthritis, uncomplicated psoriasis, and atopic dermatitis; details: 0.75-2 mg/day for approximately 1 week and greater; cited from earlier work
[9] = system: dermal inflammation; details: cumulative weekly doses of 0.35 mg/kg; cited from earlier work
[10] = system: adjuvant arthritis; details: cumulative weekly doses of 0.12 mg/kg; cited from earlier work
[11] = system: antigen-induced arthritis; details: cumulative weekly doses of >1.5 mg/kg; cited from earlier work

Nc1nc(N)c2nc(CNc3ccc(C(=O)N[C@@H](CCC(=O)O)C(=O)O)cc3)cnc2n1 [aminopterin, 4-amino-pteroyl-L-glutamic acid]
potency relative to methotrexate ([1]; ratio of EC50s, P<0.001): 43 fold
signs of toxicity at the end of the dosing period ([1]; weekly ip doses, aminopterin 0.0005-0.050 mg/kg, methotrexate 0.01-1.00 mg/kg): no signs of toxicity
EC50 for diminishing the number of neutrophils accumulated in carrageenan-treated air pouches ([1]; weekly ip injection days 1, 7, 14, 21, carrageenan day 22, exudate after 4 hours): 0.0009 mg/kg/wk
number of neutrophils in bronchoalveolar lavage fluid [2]: statistically significant reduction
median improvement from baseline in PVAS score ([3]; 5 dogs, oral 0.01 mg/kg/week, 4 weeks, range −4 to +2): −4
median improvement from baseline in CADESI score ([3]; 5 dogs, oral 0.01 mg/kg/week, 4 weeks, range −11 to −91%): −59%
median improvement from baseline in composite CADESI×pruritis score ([3]; 5 dogs, oral 0.01 mg/kg/week, 4 weeks, range −97 to +24%): −60%
clinical evidence of hematologic (CBC) or liver toxicity (LFTs) ([3]; dogs treated up to 20 weeks at 0.01 mg/kg/week): no clinical evidence of hematologic (CBC) or liver toxicity (LFTs)
overall evaluation of efficacy by owners ([3]; median score 2, range 1 to 4, oral 0.01 mg/kg/week, 4 weeks): fair (fair (25-50%))
overall evaluation of efficacy by clinicians ([3]; median score 2, range 1 to 5, oral 0.01 mg/kg/week, 4 weeks): fair (fair (25-50%))
EC50 [4]: 0.5 nM
persistence of inhibition after the single dose ([5]; active or passive EAE): up to 14 days
dose-response over the range of doses ([5]; sensitized actively or passively): clear dose-response
inhibition of the onset of active EAE ([5]; single ip dose (0.0005-0.5 mg/kg) day after active sensitization, one or more of the doses): greater than 80%
inhibition of the onset of passive EAE ([5]; single ip dose (0.0005-0.5 mg/kg) day after passive sensitization, one or more of the doses): greater than 80%
toxicity in the treatment group ([6]; weekly oral 1.0-2.0 mg for 2 years): absence of clinically significant toxicity
progression of impairment (EDSS, ambulation index, Box and Block Test, 9-Hole Peg Test or composite) ([6]; weekly oral 1.0-2.0 mg for 2 years vs placebo): Significantly less progression of impairment
displacement of 3H-methotrexate and binding to DHFR, aminopterin vs methotrexate [7]: equivalent
toxic reactions [8]: the majority of patients developed toxic reactions
efficacy [9]: demonstrated the efficacy
toxicity [9]: the animals became severely leucopenic and one subject died
efficacy [10]: demonstrated the efficacy
toxicity [10]: severe toxicity
efficacy [11]: demonstrated the efficacy
toxicity [11]: severe toxicity
